The target in this experiment is MASP-2 (CCP1-CCP2-SP) (Homo sapiens (Human), UniProt O00187). Description: Enzymatic Assay for MASP-2 (fluorogenic substrate). It is filed as biochemical. The conditions noted are these: fluorogenic substrate based on C2 cleavage site; room temperature; 20 mM HEPES pH 7.4, 140 mM NaCl, 0.1% Tween 20; 20 min. As to the method:
The MASP-2 assay utilizes a fluorogenic substrate, based on the cleavage site for its natural substrate C2. The assay is run at room temperature in an assay buffer containing 20 mM HEPES, pH 7.4, 140 mM NaCl and 0.1% Tween 20. Assay parameters are adjusted such that the assay is linear with respect to time, enzyme, and substrate concentrations. Under these optimized assays conditions, IC50 values are equivalent to Ki values, except in a few cases of “tight binding” inhibitors. Cases of “tight binding” or possible “slow binding” inhibitors are handled by the methods described in Copeland R.A. (2013) Evaluation of Enzyme Inhibitors in Drug Discovery. 2nd Ed., John Wiley and Sons, Inc., Chapters 5-7.
The MASP-2 assay protocol is carried out as follows. Test compounds are serially diluted in DMSO and then 100 nL of each dilution is transferred to the assay plate(s). 10 μL of Assay Buffer is added, followed by 15 μL of Enzyme MASP-2 (CCP1-CCP2-SP) in Assay Buffer. 15 μL of Substrate in Assay Buffer is then added and mixed to start the reactions. After 20 min at room temperature, 15 μL of a stop solution (0.1 M acetic acid) is added, mixed and the plates are read on a SpectraMax i3x Microplate Reader and exported as Excel files. Each assay plate included a “no inhibitor” (DMSO Only) control, a “no enzyme” control and a reference inhibitor control. % Activity values=100*(average test comp. fluorescence−average “no enzyme” fluorescence)/(average “DMSO only” fluorescence−average “no enzyme” fluorescence). IC50 and Ki values are very reproducible, falling well within 2-fold.

SMILES strings stand for the structures. pKi: −log10 of the molar value.

Sequence of MASP-2 (CCP1-CCP2-SP) (O00187 445-686): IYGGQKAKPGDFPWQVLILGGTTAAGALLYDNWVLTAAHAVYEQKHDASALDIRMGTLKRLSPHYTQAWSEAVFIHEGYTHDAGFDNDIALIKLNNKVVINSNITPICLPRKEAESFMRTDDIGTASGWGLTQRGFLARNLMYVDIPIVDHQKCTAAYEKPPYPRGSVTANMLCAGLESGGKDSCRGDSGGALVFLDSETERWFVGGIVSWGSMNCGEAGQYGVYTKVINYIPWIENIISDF
Sequence of MASP-2 (CCP1-CCP2-SP) (O00187 287-444 partner): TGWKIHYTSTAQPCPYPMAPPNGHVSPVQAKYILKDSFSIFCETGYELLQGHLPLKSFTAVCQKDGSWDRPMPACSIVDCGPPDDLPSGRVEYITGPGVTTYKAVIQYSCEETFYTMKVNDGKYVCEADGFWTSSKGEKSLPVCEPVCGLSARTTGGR

By pKi is commonly meant the Ki on a negative log10 scale, so that one unit is a factor of ten. A low value points to a high Ki. For the compound `CCOC(=O)CCN1CC[C@H](c2ccccc2)C[C@@H]1C(=O)N[C@@H](C)C(=O)NCc1ccc(C(=N)N)cc1` [Compound I-13, ethyl 3-((2R,4S)-2-(((S)-1-((4-carbamimidoylbenzyl)amino)-1-oxopropan-2-yl)carbamoyl)-4-phenylpiperidin-1-yl)propanoate], the pKi is greater than 6.30. `CCN1CC[C@H](c2ccccc2)C[C@@H]1C(=O)N[C@@H](C)C(=O)NCc1ccc(C(=N)NC(=O)OCc2ccccc2)cc1` [Compound I-20, benzyl ((4-(((S)-2-((2R,4S)-1-ethyl-4-phenylpiperidine-2-carboxamido)propanamido)methyl)phenyl)(imino)methyl)carbamate]: the pKi is 5.00 to 5.60. `CCN1CC[C@H](c2cccc(-n3cccn3)c2)C[C@@H]1C(=O)N[C@@H](C)C(=O)NCc1cc(Cl)ccc1-n1cnnn1` [Compound I-22, (2R,4S)-4-(3-(1H-pyrazol-1-yl)phenyl)-N—((S)-1-((5-chloro-2-(1H-tetrazol-1-yl)benzyl)amino)-1-oxopropan-2-yl)-1-ethylpiperidine-2-carboxamide] showed a pKi greater than 6.30. As for `Cc1nc(N)ccc1CNC(=O)[C@@H]1CCN1C(=O)[C@H]1C[C@@H](c2ccccc2)CCN1C` [Compound I-16, (S)—N-((6-amino-2-methylpyridin-3-yl)methyl)-1-((2R,4S)-1-methyl-4-phenylpiperidine-2-carbonyl)azetidine-2-carboxamide], the pKi is greater than 6.30.

For the compound `C[C@H](NC(=O)[C@H]1C[C@@H](c2ccccc2)CCN1CCP(=O)(O)O)C(=O)NCc1cc2cnccc2[nH]1` [Compound I-15, (2-((2R,4S)-2-(((S)-1-(((1H-pyrrolo[3,2-c]pyridin-2-yl)methyl)amino)-1-oxopropan-2-yl)carbamoyl)-4-phenylpiperidin-1-yl)ethyl)phosphonic acid], the pKi was greater than 6.30.

On to `CCN1CC[C@H](c2ccccc2)C[C@@H]1C(=O)N[C@@H](C)C(=O)NCc1ccc(C(=N)N)cc1` [Compound I-21, (2R,4S)—N—((S)-1-((4-carbamimidoylbenzyl)amino)-1-OXOPROPAN-2-yl)-1-ethyl-4-phenylpiperidine-2-carboxamide], for which the pKi is greater than 6.30. For `C[C@H](NC(=O)[C@H]1C[C@@H](c2ccccc2)CCN1)C(=O)NCc1ccc(/C(N)=N/O)cc1` [Compound I-31, (2R,4S)—N—((S)-1-((4-((Z)—N′-hydroxycarbamimidoyl)benzyl)amino)-1-oxopropan-2-yl)-4-phenylpiperidine-2-carboxamide], the pKi was 5.60 to 6.30.

The compound `CN1CC[C@H](c2ccccc2)C[C@@H]1C(=O)N1CC[C@H]1C(=O)NCc1ccc(C(=N)N)cc1` [Compound I-17, (S)—N-(4-carbamimidoylbenzyl)-1-((2R,4S)-1-methyl-4-phenylpiperidine-2-carbonyl)azetidine-2-carboxamide] showed a pKi greater than 6.30. Take `C[C@H](NC(=O)[C@H]1C[C@@H](c2ccccc2)CC[N+]1(C)C)C(=O)NCc1ccc(C(=N)N)cc1` [Compound I-10, (2R,4S)-2-(((S)-1-((4-carbamimidoylbenzyl)amino)-1-oxopropan-2-yl)carbamoyl)-1,1-dimethyl-4-phenylpiperidin-1-ium 2,2,2-trifluoroacetate]: the pKi is greater than 6.30. Consider `C[C@H](NC(=O)[C@H]1C[C@@H](c2ccccc2)CCN1)C(=O)NCc1ccc(/C(N)=N/O)s1` [Compound I-24, (2R,4S)—N—((S)-1-(((5-((Z)—N-hydroxycarbamimidoyl)thiophen-2-yl)methyl)amino)-1-oxopropan-2-yl)-4-phenylpiperidine-2-carboxamide], for which the pKi is greater than 6.30.

In the case of `N=C(NC(=O)OCc1ccccc1)c1ccc(CNC(=O)[C@@H]2CCN2C(=O)[C@H]2C[C@@H](c3ccccc3)CCN2)cc1` [Compound I-19, benzyl (imino(4-(((S)-1-((2R,4S)-4-phenylpiperidine-2-carbonyl)azetidine-2-carboxamido)methyl)phenyl)methyl)carbamate], the pKi is 5.60 to 6.30.

For `CC(C)[C@H](N)C(=O)O/N=C(\N)c1ccc(CNC(=O)[C@H](C)NC(=O)[C@H]2C[C@@H](c3ccccc3)CCN2)cc1` [Compound I-7, (2R,4S)—N—((S)-1-((4-((Z)—N′-((L-valyl)oxy)carbamimidoyl)benzyl)amino)-1-oxopropan-2-yl)-4-phenylpiperidine-2-carboxamide], the pKi is greater than 6.30. As for `C[C@H](NC(=O)[C@H]1C[C@@H](c2ccccc2)CCN1CCC(=O)O)C(=O)NCc1ccc(C(=N)N)cc1` [Compound I-14, 3-((2R,4S)-2-(((S)-1-((4-carbamimidoylbenzyl)amino)-1-oxopropan-2-yl)carbamoyl)-4-phenylpiperidin-1-yl)propanoic acid], the pKi was greater than 6.30.

Values taken from patent US11661418B2, “MASP-2 inhibitors and methods of use” (Omeros Corporation, priority 2019, dated 2023).
